Measured values taken from the CheMixHub viscosity set.

Assay: xn = mol fraction of the nth substance listed

CCCCCCCCCO + c1ccccc1
viscosity [mPa·s], 100 kPa
Conditions | x2 = 0.0841 | x2 = 0.1721 | x2 = 0.2502 | x2 = 0.3634 | x2 = 0.4529 | x2 = 0.5631 | x2 = 0.6508 | x2 = 0.7569 | x2 = 0.8448 | x2 = 0.9503
293.15 K | 9.518 | 7.891 | 6.648 | 5.055 | 3.95 | 2.851 | 2.158 | 1.469 | 1.089 | 0.766
303.15 K | 6.477 | 5.231 | 4.302 | 3.268 | 2.618 | 1.931 | 1.474 | 1.067 | 0.824 | 0.628
313.15 K | 4.537 | 3.665 | 3.011 | 2.228 | 1.762 | 1.327 | 1.045 | 0.807 | 0.675 | 0.542
323.15 K | 3.323 | 2.677 | 2.203 | 1.656 | 1.318 | 1.005 | 0.817 | 0.662 | 0.56 | 0.474

CC1CCCCC1=O (stereo not given) + CCCCN
303.15 K, 101.33 kPa
Conditions | viscosity [mPa·s]
x2 = 0.1214 | 1.802
x2 = 0.2017 | 1.906
x2 = 0.3249 | 1.944
x2 = 0.4512 | 1.826
x2 = 0.5524 | 1.715
x2 = 0.6849 | 1.417
x2 = 0.8025 | 1.126
x2 = 0.8938 | 0.855

O=S(=O)(O)CC(O)CN1CCOCC1 (stereo not given) + O
viscosity [mPa·s], 101.3 kPa
Conditions | x1 = 0.00371 | x1 = 0.007201 | x1 = 0.009661 | x1 = 0.01079 | x1 = 0.01403 | x1 = 0.01784
298.15 K | 0.942 | 1.033 | 1.078 | 1.117 | 1.197 | 1.303
308.15 K | 0.761 | 0.833 | 0.871 | 0.901 | 0.966 | 1.051
318.15 K | 0.631 | 0.691 | 0.721 | 0.746 | 0.798 | 0.866

CC(=O)N(C)C + COC(=O)OC
298.15 K, 101 kPa
Conditions | viscosity [mPa·s]
x2 = 0.0376 | 0.937
x2 = 0.0836 | 0.914
x2 = 0.1443 | 0.887
x2 = 0.2234 | 0.854
x2 = 0.3348 | 0.807
x2 = 0.4705 | 0.757
x2 = 0.5544 | 0.726
x2 = 0.6212 | 0.702
x2 = 0.6902 | 0.679
x2 = 0.7541 | 0.659
x2 = 0.8244 | 0.636
x2 = 0.9102 | 0.608

O=C(Nc1ccccc1)Nc1ccccc1 + c1ccncc1
298.15 K, 101 kPa
Conditions | viscosity [mPa·s]
x1 = 0.022 | 1.045
x1 = 0.0281 | 1.079

CCCCCCCCCO + CCC(C)=O
viscosity [mPa·s], 100 kPa
Conditions | x2 = 0.0834 | x2 = 0.1589 | x2 = 0.2407 | x2 = 0.3508 | x2 = 0.4403 | x2 = 0.5589 | x2 = 0.6502 | x2 = 0.7393 | x2 = 0.8501 | x2 = 0.9393
293.15 K | 8.68 | 6.91 | 5.59 | 4.29 | 3.39 | 2.38 | 1.83 | 1.33 | 0.78 | 0.56
303.15 K | 6.38 | 5.06 | 3.89 | 2.91 | 2.25 | 1.52 | 0.98 | 0.76 | 0.53 | 0.46
313.15 K | 4.39 | 3.52 | 2.8 | 2.07 | 1.61 | 1.21 | 0.98 | 0.78 | 0.55 | 0.42
323.15 K | 3.27 | 2.67 | 2.14 | 1.56 | 1.25 | 0.92 | 0.72 | 0.59 | 0.47 | 0.38
